Assay results reported in patent US20160120979A1, “METHOD OF APPLYING A COMPOSITION AND PHARMACEUTICAL COMPOSITION WITH A REGIMEN OF ADMINISTERING IT” (priority 2013, published 2016).
Converted amounts (≈) assume the structure as drawn. Like-named read-outs stand apart in the source and are kept apart here.

Columns and labels:
Acinetobacter [1] = assay: Experiment 12: replication on antibiotic agar after pulsed 400 nm irradiation; assay type: cell-based; conditions: 24 hours incubation; for C: Acinetobacter (no irradiation), replication: antibiotic 10 mg/l in MH agar; for D Acinetobacter (irradiation), replication: antibiotic 10 mg/l, 400 nm LED pulses 0.02 ms, 1 kHz, 10 minutes
Experimental: (§1) 15′000′000 multi-resistant bacteriae (0.050 ml of a McFarland of 1) were put on 40 mm diameter petri dishes. The petri dishes comprised MH agar with or without antibiotic.
(§2) […]. The LED power during 0.02 ms was measured to be 0.63 W on a Thorlabs power sensor with a surface area of 2.2×2.2 mm representing a power of 13 mW/cm^2.

Pseudomonas aeruginosa = assay: as above; assay type: cell-based; conditions: 24 hours incubation; for A: Pseudomonas aeruginosa (no irradiation), replication: antibiotic 10 mg/l in MH agar; for B: Pseudomonas aeruginosa (irradiation), replication: antibiotic 10 mg/l, 400 nm LED pulses 0.02 ms, 1 kHz, 10 minutes
Experimental: as §1, §2

[2] = system: MU50 multidrug-resistant Staphylococcus aureus strain (MRSA); assay: Minimum inhibitory concentration (MIC) on MU50; assay type: cell-based
Description: For some of the experimental tests MU50 bacteria were used. MU50 is a multidrug-resistant Staphylococcus aureus strain (MRSA). MRSA are bacteria which have naturally evolved under antibiotic selection pressure and which are known to be resistant to antibiotics including penicillins (methicillin, dicloxacillin, nafcillin, oxacillin, etc.) and cephalosporins. MU50 is additionally resistant to macrolides, quinolones and aminoglycosides.
The minimum inhibitory concentration (MIC), which inhibits the visible growth of a microorganism after an overnight incubation was determined for the following antibiotics: […]

[3] = system: Staphylococcus aureus MU500; assay: Experiment 12: replication on antibiotic agar after pulsed 400 nm irradiation; assay type: cell-based; conditions: 24 hours incubation; for E: Staphylococcus aureus MU500 (no irradiation), replication: antibiotic 10 mg/l in MH agar; for F: Staphylococcus aureus MU500 (irradiation), replication: antibiotic 10 mg/l, 400 nm LED pulses 0.02 ms, 1 kHz, 10 minutes
Experimental: as §1
(§3) The LED power during 0.02 ms was measured to be 0.63 W on a Thorlabs power sensor with a surface area of 2.2×2.2 mm representing a power of 13 mW/cm^2.

Acinetobacter [4] = assay type: cell-based; conditions: for D Acinetobacter (irradiation), replication, second treatment / C: Acinetobacter (no irradiation), replication, second treatment: remaining bacteria of experiment 12 proliferated and treated again
Experimental: as §1, §3
(§4) After the irradiation treatment according to experiment 12, remaining bacteria were allowed to proliferate and then were subject to the treatment according to experiment 12 again in order to test for possible new resistances to the treatment. The values in the following table are designated as in experiment 12: […]

[5] = system: Staphylococcus aureus MU500; assay type: cell-based
Experimental: as §1, §3, §4

[6] = system: MU 50 multi-resistant bacteria; assay: Experiment 7: growth of MU50 after pulsed 400 nm photo-activation of antibiotics; assay type: cell-based, Staphylococcus aureus
Experimental: (§5) In Experiments 7 to 9 the effect of some exemplary photo-activated antibiotics is tested on two different multi resistant bacterial strains:
In Experiment 7 MU 50 multi-resistant bacteria as described above for Experiments 1 to 3 were tested.
(§6) G→Pulse ON 5 ms energy 0.05 J, OFF 45 ms during 10 minutes
(§7) The following experimental procedure are the same for experiments 7, 8 and 9: The bacterial cells were grown in Mueller Hinton Broth in the presence of an antibiotic at a concentration according to the table below until they reached turbidity of 1 according to the McFarland Standard (=3×10^8 bacteria/ml):
(§8) For each antibiotic two patterns of pulsed exposure for photo-activation were applied and a control without exposure to radiation. For example in experiment 7 and 8, pulse ON 10 ms energy 0.1 J, OFF 90 ms during 10 minutes and pulse ON 5 ms energy 0.05 J, OFF 45 ms i.e. in both treatments a 10% ON and a 90% OFF pattern and both for a duration of 10 minutes.
(§9) Incubation for 2 to up 36 hours at 37° C. until time=t2
(§10) At time=t2 one of the antibiotics is added to obtain the same concentration of antibiotic as during the original growth phase prior to time t1=0 as listed in the table above.
(§11) Incubation for further 2 to 4 hours at 37° C. in the presence of antibiotic until time=t3.
(§12) The absorbance value correlates to the colloidal effect and the number of bacteria in the sample.
(§13) These tables below list for each bacterial sample the difference in absorption values representing the difference in the number of bacteria present in each sample by subtracting the absorption values at time t4, which is the last measurement of the growth curve presented in FIGS. 3 to 5 from the last absorption value before the treatment with light at time t3. The values of A and G represent the effect of the treatment of the bacterial samples with two different light patterns for activation of the antibiotic as described above. The values of D correspond to the control samples without photo-activation of the antibiotic: […]

[7] = system: PA01 Pseudamonas aeruginosa MultiR genetically modified bacteria; assay: Experiment 9: growth of PA01 after pulsed 400 nm photo-activation, shorter pulses; assay type: cell-based; conditions: antibiotic concentration per the 13th table
Experimental: as §5
(§14) In Experiment 8 and 9 PA01 Pseudamonas aeruginosa MultiR genetically modified bacteria were tested. This PA01 strain is genetically modified with a quinolone pump and conferring resistance to antibiotics of the quinolone group of antibiotics.
A→Pulse ON 3 ms energy 0.03 J, OFF 27 ms during 10 minutes
G→Pulse ON 1 ms energy 0.01 J, OFF 9 ms during 10 minutes
as §7, §8, §9, §10, §11, §12, §13

[8] = system: PA01 Pseudamonas aeruginosa MultiR genetically modified bacteria; assay: Experiment 8: growth of PA01 after pulsed 400 nm photo-activation of antibiotics; assay type: cell-based; conditions: antibiotic concentration per the 12th table
Experimental: as §5, §14, §6, §7, §8, §9, §10, §11, §12, §13

[9] = Staphylococcus aureus, MRSA, overnight incubation, read-out: MIC
[10] = remaining bacteria of experiment 12 proliferated and treated again
[11] = A: 400 nm LED pulse ON 3 ms energy 0.03 J, OFF 27 ms during 10 minutes
[12] = G: 400 nm LED pulse ON 1 ms energy 0.01 J, OFF 9 ms during 10 minutes
[13] = A: 400 nm LED pulse ON 10 ms energy 0.1 J, OFF 90 ms during 10 minutes
[14] = G: 400 nm LED pulse ON 5 ms energy 0.05 J, OFF 45 ms during 10 minutes
[15] = A: 400 nm LED pulse ON 10 ms energy 0.1 J, OFF 90 ms during 10 minutes, antibiotic concentration per the 11th table, approx. ten hours after t3
[16] = D: control no pulse, antibiotic concentration per the 11th table
[17] = G: 400 nm LED pulse ON 5 ms energy 0.05 J, OFF 45 ms during 10 minutes, antibiotic concentration per the 11th table
[18] = second treatment according to experiment 12

Row | Compound | C: Acinetobacter (no irradiation), replication (Acinetobacter [1]) | D Acinetobacter (irradiation), replication (Acinetobacter [1]) | A: Pseudomonas aeruginosa (no irradiation), replication (Pseudomonas aeruginosa) | B: Pseudomonas aeruginosa (irradiation), replication (Pseudomonas aeruginosa) | E: Staphylococcus aureus MU500 (no irradiation), replication [3] | F: Staphylococcus aureus MU500 (irradiation), replication [3] | difference in absorption values (595-600 nm) between t4 and t3 [8, 13] | difference in absorption values (595-600 nm) between t4 and t3 ([8]; D: control no pulse) | difference in absorption values (595-600 nm) between t4 and t3 [8, 14] | MIC ([2]; overnight incubation) [µg/mL] | also measured
1 | O=C(O)c1cn(C2CC2)c2cc(N3CCNCC3)c(F)cc2c1=O [Ciprofloxacin] | R (Bacteria can replicate after the treatment) | NR (No replication) | R (Bacteria can replicate after the treatment) | NR (No replication) | R (Bacteria can replicate after the treatment) | – | – | – | – | – | MIC [2, 9]: > 16 µg/mL; D Acinetobacter (irradiation), replication, second treatment (Acinetobacter [4]): NR (No replication); C: Acinetobacter (no irradiation), replication, second treatment (Acinetobacter [4]): R (Bacteria can replicate after the treatment); E: Staphylococcus aureus MU500 (no irradiation), replication, second treatment [5, 10]: R (Bacteria can replicate after the treatment)
2 | CC[C@H]1OC(=O)[C@H](C)[C@@H](O[C@H]2C[C@@](C)(OC)[C@@H](O)[C@H](C)O2)[C@H](C)[C@@H](O[C@@H]2O[C@H](C)C[C@H](N(C)C)[C@H]2O)[C@](C)(OC)C[C@@H](C)C(=O)[C@H](C)[C@@H](O)[C@]1(C)O [Clarithromycin] | R (Bacteria can replicate after the treatment) | R (Bacteria can replicate after the treatment) | R (Bacteria can replicate after the treatment) | PR (Bacteria can replicate partially) | R (Bacteria can replicate after the treatment) | R (Bacteria can replicate after the treatment) | 0.0106 | 0.1041 | −0.0396 | – | difference in absorption values (595-600 nm) between t4 and t3 [6]: 0.0956; difference in absorption values (595-600 nm) between t4 and t3 ([6]; 10 min): −0.1383; difference in absorption values (595-600 nm) between t4 and t3 ([6]; 10 h): −0.1249; difference in absorption values (595-600 nm) between t4 and t3 [7, 11]: −0.1708; difference in absorption values (595-600 nm) between t4 and t3 ([7]; D: control no pulse): −0.0024; difference in absorption values (595-600 nm) between t4 and t3 [7, 12]: −0.0994
3 | C[C@H]1c2cccc(O)c2C(=O)C2=C(O)[C@]3(O)C(=O)C(C(N)=O)=C(O)[C@@H](N(C)C)[C@@H]3[C@@H](O)[C@@H]21 [Doxycycline] | R (Bacteria can replicate after the treatment) | NR (No replication) | R (Bacteria can replicate after the treatment) | NR (No replication) | R (Bacteria can replicate after the treatment) | NR (No replication) | −0.0365 | 0.0735 | 0.0181 | – | difference in absorption values (595-600 nm) between t4 and t3 [6, 15]: −0.083; difference in absorption values (595-600 nm) between t4 and t3 [6, 16]: 0.0072; difference in absorption values (595-600 nm) between t4 and t3 [6, 17]: −0.0429; D Acinetobacter (irradiation), replication, second treatment (Acinetobacter [4]): NR (No replication); C: Acinetobacter (no irradiation), replication, second treatment (Acinetobacter [4]): R (Bacteria can replicate after the treatment); resistance to the treatment of the second generation resistant bacteria (Acinetobacter [4]; [18]): no resistance to the treatment; F: Staphylococcus aureus MU500 (irradiation), replication, second treatment ([5]; remaining bacteria of experiment 12 proliferated and treated again, irradiation): NR (No replication); E: Staphylococcus aureus MU500 (no irradiation), replication, second treatment [5, 10]: R (Bacteria can replicate after the treatment); resistance to the treatment of the second generation resistant bacteria [5, 18]: no resistance to the treatment
4 | CCn1cc(C(=O)O)c(=O)c2cc(F)c(N3CCNCC3)cc21 [Norfloxacin] | R (Bacteria can replicate after the treatment) | NR (No replication) | R (Bacteria can replicate after the treatment) | NR (No replication) | R (Bacteria can replicate after the treatment) | PR (Bacteria can replicate partially) | −0.0491 | 0.0039 | −0.1879 | – | difference in absorption values (595-600 nm) between t4 and t3 [6, 15]: −0.1198; difference in absorption values (595-600 nm) between t4 and t3 [6, 16]: −0.1119; difference in absorption values (595-600 nm) between t4 and t3 [6, 17]: −0.0589
5 | Cc1onc(-c2ccccc2)c1C(=O)N[C@@H]1C(=O)N2[C@@H]1SC(C)(C)[C@@H]2C(=O)O [Oxacillin] | – | – | – | – | – | – | – | – | – | – | MIC [2, 9]: > 32 µg/mL
6 | CO[C@H]1/C=C/O[C@@]2(C)Oc3c(C)c(O)c4c(O)c(c(/C=N/N5CCN(C)CC5)c(O)c4c3C2=O)NC(=O)/C(C)=C\C=C\[C@H](C)[C@H](O)[C@@H](C)[C@@H](O)[C@@H](C)[C@H](OC(C)=O)[C@@H]1C [Rifampicin] | – | – | – | – | – | – | 0.0137 | 0.0679 | −0.0678 | – | difference in absorption values (595-600 nm) between t4 and t3 [6]: −0.0542; difference in absorption values (595-600 nm) between t4 and t3 ([6]; 10 min): −0.0914; difference in absorption values (595-600 nm) between t4 and t3 ([6]; 10 h): −0.1027; difference in absorption values (595-600 nm) between t4 and t3 [7, 11]: −0.0808; difference in absorption values (595-600 nm) between t4 and t3 ([7]; D: control no pulse): 0.0562; difference in absorption values (595-600 nm) between t4 and t3 [7, 12]: −0.0196
7 | CN[C@H](CC(C)C)C(=O)N[C@H]1C(=O)N[C@@H](CC(N)=O)C(=O)N[C@H]2C(=O)N[C@H]3C(=O)N[C@H](C(=O)N[C@H](C(=O)O)c4cc(O)cc(O)c4-c4cc3ccc4O)[C@H](O)c3ccc(c(Cl)c3)Oc3cc2cc(c3O[C@@H]2O[C@H](CO)[C@@H](O)[C@H](O)[C@H]2O[C@H]2C[C@](C)(N)[C@H](O)[C@H](C)O2)Oc2ccc(cc2Cl)[C@H]1O [Vancomycin] | – | – | – | – | – | – | – | – | – | – | MIC ([2]; Staphylococcus aureus, MRSA): 8 µg/mL (≈ 5.52 µM)
8 | Gentamicin | – | – | – | – | – | – | – | – | – | >16 | –
9 | Penicillin | – | – | – | – | – | – | – | – | – | >8 | –
10 | Teicopanin | – | – | – | – | – | – | – | – | – | 8 | –
